One test deals with T1, full length human TREX1 (Homo sapiens, UniProt Q9NSU2).
T1 construct: N-terminally His-Tev tagged full length human TREX1; His-Tev (His tag with TEV protease site) (N); made in house; host or cells: E. coli
T1 sequence (Q9NSU2 1-314): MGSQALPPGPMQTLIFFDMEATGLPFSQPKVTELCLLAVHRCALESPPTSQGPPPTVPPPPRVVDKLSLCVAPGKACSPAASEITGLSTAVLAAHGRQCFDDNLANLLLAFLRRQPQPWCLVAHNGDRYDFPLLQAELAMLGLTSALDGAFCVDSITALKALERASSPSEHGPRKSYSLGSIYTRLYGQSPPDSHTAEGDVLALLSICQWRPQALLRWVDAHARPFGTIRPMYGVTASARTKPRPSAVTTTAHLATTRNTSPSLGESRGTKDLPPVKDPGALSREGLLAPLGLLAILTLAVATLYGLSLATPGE
Put plainly: TREX1 Biochemical Assay (fluorescence assay, degradation of dsDNA substrate). The conditions noted are these: 150 pM TREX1, 60 nM dsDNA substrate, 25 minutes at room temperature; read-out: hTREX1 EC50. The protocol:
Degradation of the dsDNA liberates free fluorophore to produce a fluorescent signal. Specifically, 7.5 μL of N-terminally His-Tev tagged full length human TREX1 (expressed in E. coli and purified in house) in reaction buffer (50 mM Tris (pH 7.4), 150 mM NaCl, 2 mM DTT, 0.1 mg/mL BSA, 0.01% (v/v) Tween-20 and 100 mM MgCl2) was added to a 384-well Black ProxiPlate Plus (Perkin Elmer) which already contained compound (150 nL) at varying concentrations as a 10-point dose-response in DMSO. To this was added 7.5 μL of dsDNA substrate (Strand A: 5′ TEX615/GCT AGG CAG 3′; Strand B: 5′ CTG CCT AGC/IAbRQSp (Integrated DNA Technologies)) in reaction buffer. Final concentrations were 150 pM TREX1, 60 nM dsDNA substrate in reaction buffer with 1.0% DMSO (v/v). After 25 minutes at room temperature, reactions were quenched by the addition of 5 μL of stop buffer (same as reaction buffer plus 200 mM EDTA). Final concentrations in the quenched reaction were 112.5 pM TREX1, 45 nM DNA and 50 mM EDTA in a volume of 20 μL. After a 5-minute incubation at room temperature, plates were read in a laser sourced Envision (Perkin-Elmer), measuring fluorescence at 615 nm following excitation w/570 nm light. IC50 values were calculated by comparing the measured fluorescence at 615 nm ratio relative to control wells pre-quenched w/stop buffer (100% inhibition) and no inhibitor (0% inhibition) controls as using non-linear least square four parameter fits and either Genedata or GraphPad Prism (GraphPad Software, Inc.).

The target in test [1] is T2, human TREX2 (residues M44-A279) (Homo sapiens, UniProt Q9BQ50).
T2 construct: human TREX2 (residues M44-A279, expressed in E. coli); His-Tev (His tag with TEV protease site) (N); made in house; host or cells: E. coli
T2 sequence (Q9BQ50 44-279 isoform Q9BQ50-1): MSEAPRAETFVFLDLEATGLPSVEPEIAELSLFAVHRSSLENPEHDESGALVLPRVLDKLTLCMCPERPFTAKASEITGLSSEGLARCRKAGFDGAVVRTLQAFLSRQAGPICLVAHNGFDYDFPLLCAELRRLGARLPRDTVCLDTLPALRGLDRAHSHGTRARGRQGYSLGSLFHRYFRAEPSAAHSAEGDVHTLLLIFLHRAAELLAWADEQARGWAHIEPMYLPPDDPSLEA
Put plainly: TREX2 Biochemical Assay (fluorescence assay, degradation of dsDNA substrate). The settings on record: 2.5 nM TREX2, 60 nM dsDNA substrate, 25 minutes at room temperature; read-out: hTREX2 EC50. The protocol:
Degradation of the dsDNA liberates free fluorophore to produce a fluorescent signal. Specifically, 7.5 μL of N-terminally His-Tev tagged human TREX2 (residues M44-A279, expressed in E. coli and purified in house) in reaction buffer (50 mM Tris (pH 7.4), 150 mM NaCl, 2 mM DTT, 0.1 mg/mL BSA, 0.01% (v/v) Tween-20 and 100 mM MgCl2) was added to a 384-well Black ProxiPlate Plus (Perkin Elmer) which already contained compound (150 nL) at varying concentrations as a 10-point dose-response in DMSO. To this was added 7.5 μL of dsDNA substrate (Strand A: 5′ TEX615/GCT AGG CAG 3′; Strand B: 5′ CTG CCT AGC/IAbRQSp (IDT)) in reaction buffer. Final concentrations were 2.5 nM TREX2, 60 nM dsDNA substrate in reaction buffer with 1.0% DMSO (v/v). After 25 minutes at room temperature, reactions were quenched by the addition of 5 μL of stop buffer (same as reaction buffer plus 200 mM EDTA). Final concentrations in the quenched reaction mixture were […] TREX2, 45 nM DNA and 50 mM EDTA in a volume of 20 μL. After a 5-minute incubation at room temperature, plates were read in a laser sourced Envision (Perkin-Elmer), measuring fluorescence at 615 nm following excitation w/570 nm light. IC50 values were calculated by comparing the measured fluorescence at 615 nm ratio relative to control wells pre-quenched w/stop buffer (100% inhibition) and no inhibitor (0% inhibition) controls as using non-linear least square four parameter fits and either Genedata or GraphPad Prism (GraphPad Software, Inc.).

Turning to `O=C(c1ccc(Br)cc1)N(Cc1cccnc1)Cc1cc(Cl)cc(Cl)c1` [Compound 26], the EC50 (in general, the concentration that produces a half-maximal response) on full length human TREX1 is more than 10 µM; in test [1], more than 100 µM.

On to `N#CCC[C@H](c1ccccc1Cl)N(Cc1cccnc1)C(=O)c1cc(F)cc(F)c1` [Compound 178], for which the EC50 lay within 1 to 10 µM on full length human TREX1 and 10 to 100 µM in test [1].

Take `NCC[C@H](c1cccc(Cl)c1Cl)N(Cc1cccnc1)C(=O)c1cc(F)cc(F)c1` [Compound 238]: the EC50 on full length human TREX1 was more than 10 µM; in test [1], 10 to 100 µM.

With `CC(C)(C)OC(=O)Nc1cncc(CN(Cc2cccc(Cl)c2Cl)C(=O)c2cc(F)cc(F)c2)c1` [Compound 212], the EC50 at full length human TREX1 lay within 0.1 to 1 µM; in test [1], 1 to 10 µM.

Regarding `O=C(c1cccc(Oc2ccccc2)c1)N(Cc1cccnc1)Cc1ccc(Cl)cc1Cl` [Compound 31], the EC50 at full length human TREX1 was more than 10 µM; in test [1], more than 100 µM.

Regarding `NCC[C@@H](c1cccc(Cl)c1Cl)N(Cc1cccnc1)C(=O)c1cc(F)cc(F)c1` [Compound 237], the figures for the EC50 (at full length human TREX1; in test [1]) were more than 10 µM and 10 to 100 µM, respectively.

For `COc1cc(C(=O)N(Cc2cccnc2)Cc2cc(Cl)cc(Cl)c2)ccc1F` [Compound 50], the EC50 on full length human TREX1 was more than 10 µM; in test [1] it was more than 100 µM.

Turning to `O=C(c1cc(Cl)c(O)c(Cl)c1)N(Cc1cccnc1)Cc1cc(Cl)cc(Cl)c1` [Compound 49], the EC50 is more than 10 µM on full length human TREX1 and more than 100 µM in test [1].

In the case of `Cc1cc(C(=O)O)ncc1CN(Cc1cccc(Cl)c1Cl)C(=O)c1cc(F)cc(F)c1` [Compound 205], the EC50 at full length human TREX1 is less than 0.1 µM; in test [1] it was less than 1 µM.

Turning to `O=C(c1cc(Cl)c(O)c(Cl)c1)N(Cc1cccnc1)Cc1ccc(Cl)cc1Cl` [Compound 27], the EC50 is more than 10 µM at full length human TREX1 and more than 100 µM in test [1].

Regarding `CC[C@H](c1ccc(OC)c(OC)c1Cl)N(Cc1ccc(C(=O)O)nc1)C(=O)c1cc(F)cc(F)c1` [Compound 226], the EC50 at full length human TREX1 was less than 0.1 µM; in test [1], 1 to 10 µM.

As to `O=C(c1cc(F)c(F)cc1F)N(Cc1cccnc1)Cc1ccc(Cl)cc1Cl` [Compound 120], the EC50 on full length human TREX1 is more than 10 µM; in test [1], more than 100 µM.

For the compound `O=C(c1cocn1)N(Cc1cccnc1)Cc1ccc(Cl)cc1Cl` [Compound 113], the values for the EC50 (at full length human TREX1; in test [1]) were more than 10 µM and more than 100 µM, respectively.

With `O=C(c1cccc(Cl)c1)N(Cc1cccnc1)Cc1cc(Cl)cc(Cl)c1` [Compound 34], the EC50 was more than 10 µM on full length human TREX1 and more than 100 µM in test [1].

Turning to `O=C(c1ccc(Oc2ccc(Cl)cc2)cc1)N(Cc1cccnc1)Cc1ccc(Cl)cc1Cl` [Compound 25], the results for the EC50 (at full length human TREX1; in test [1]) were 1 to 10 µM and more than 100 µM, respectively.

In the case of `CC(C)(C)c1ccc(C(=O)N(Cc2cccnc2)Cc2cc(Cl)cc(Cl)c2)cc1` [Compound 61], the values for the EC50 (on full length human TREX1; in test [1]) were more than 10 µM and more than 100 µM, respectively.

Consider `O=C(c1cccc(F)c1)N(Cc1cnccn1)Cc1ccc(Cl)cc1Cl` [Compound 111], for which the values for the EC50 (at full length human TREX1; in test [1]) were 1 to 10 µM and more than 100 µM, respectively.

Consider `O=C(c1cc(F)cc(F)c1)N(Cc1cccnc1)[C@@H](CCO)c1ccc(Cl)cc1Cl` [Compound 261], for which the EC50 on full length human TREX1 lay in the range of 0.1 to 1 µM; in test [1], 10 to 100 µM.

In the case of `COc1cc(C(=O)N(Cc2cccnc2)Cc2cc(Cl)cc(Cl)c2)cc(Cl)c1O` [Compound 67], the EC50 was more than 10 µM at full length human TREX1 and more than 100 µM in test [1].

As to `COc1cc(C(=O)N(Cc2cccnc2)Cc2ccc(Cl)cc2Cl)cc(Br)c1OC` [Compound 32], the EC50 was more than 10 µM on full length human TREX1 and more than 100 µM in test [1].

Take `O=C(c1ccc(-c2ccccc2)cc1)N(Cc1cccnc1)Cc1cc(Cl)cc(Cl)c1` [Compound 58]: the EC50 was more than 10 µM on full length human TREX1 and more than 100 µM in test [1].

With `Cc1ccc(C(=O)N(Cc2cccnc2)Cc2cc(Cl)cc(Cl)c2)c(Br)c1` [Compound 76], the EC50 at full length human TREX1 was more than 10 µM; in test [1] it was more than 100 µM.

Turning to `O=C(c1ccc(F)c(Cl)c1)N(Cc1cccnc1)Cc1ccc(Cl)cc1Cl` [Compound 19], the EC50 was 1 to 10 µM on full length human TREX1 and more than 100 µM in test [1].

Turning to `O=C(c1cccc(F)c1)N(CCc1ccccc1)Cc1cccnc1` [Compound 131], the values for the EC50 (at full length human TREX1; in test [1]) were more than 10 µM and more than 100 µM, respectively.

`O=C(c1ccc(O)c(Cl)c1)N(Cc1cccnc1)Cc1cc(Cl)cc(Cl)c1` [Compound 35]: the EC50 on full length human TREX1 was more than 10 µM; in test [1], more than 100 µM.

In the case of `CC[C@@H](c1cccc(OC)c1Cl)N(Cc1ccc(C(=O)O)nc1)C(=O)c1cc(F)cc(F)c1` [Compound 167], the EC50 at full length human TREX1 was less than 0.1 µM; in test [1], 1 to 10 µM.

Regarding `COc1cc(C(=O)N(Cc2cccnc2)Cc2cc(Cl)cc(Cl)c2)cc(Br)c1OC` [Compound 47], the EC50 was more than 10 µM at full length human TREX1 and more than 100 µM in test [1].

For `O=C(c1cccc(F)c1)N(Cc1ccc(CO)nc1)Cc1ccc(Cl)cc1Cl` [Compound 145, N-(2,4-dichlorobenzyl)-3-fluoro-N-((6-(hydroxymethyl)pyridin-3-yl)methyl)benzamide], the values for the EC50 (at full length human TREX1; in test [1]) were 1 to 10 µM and 10 to 100 µM, respectively.

Turning to `O=C(c1ccc2ccccc2c1)N(Cc1cccnc1)Cc1ccc(Cl)cc1Cl` [Compound 28], the EC50 at full length human TREX1 is more than 10 µM; in test [1] it was more than 100 µM.

On to `Cc1ccccc1CN(Cc1ccc(C(=O)O)nc1)C(=O)c1cc(F)cc(F)c1` [Compound 193], for which the EC50 lay within 0.1 to 1 µM at full length human TREX1 and 10 to 100 µM in test [1].

Regarding `COc1cccc(C(=O)N(Cc2cccnc2)Cc2cc(Cl)cc(Cl)c2)c1` [Compound 36], the EC50 at full length human TREX1 was more than 10 µM; in test [1] it was more than 100 µM.

On to `O=C(c1ncccn1)N(Cc1cccnc1)Cc1ccc(Cl)cc1Cl` [Compound 102], for which the values for the EC50 (at full length human TREX1; in test [1]) were more than 10 µM and more than 100 µM, respectively.

Take `O=C(O)c1ccc(CN(Cc2cccc(Cl)c2C(F)(F)F)C(=O)c2cc(F)cc(F)c2)cn1` [Compound 198]: the results for the EC50 (at full length human TREX1; in test [1]) were 0.1 to 1 µM and 10 to 100 µM, respectively.

On to `O=C(c1ccc(Oc2ccccc2)cc1)N(Cc1cccnc1)Cc1cc(Cl)cc(Cl)c1` [Compound 71], for which the figures for the 50% effective concentration (EC50) (on full length human TREX1; in test [1]) were more than 10 µM and more than 100 µM, respectively.

Turning to `Cc1ncc(C(=O)N(Cc2cccnc2)Cc2ccc(Cl)cc2Cl)cn1` [Compound 104], the results for the EC50 (at full length human TREX1; in test [1]) were more than 10 µM and more than 100 µM, respectively.

Consider `C[C@@H](c1cccc(Cl)c1Cl)N(Cc1ccc(C(=O)O)nc1)C(=O)c1cc(F)cc(F)c1` [Compound 174], for which the EC50 was less than 0.1 µM on full length human TREX1 and less than 1 µM in test [1].

For `N#CC[C@H](c1cccc(Cl)c1Cl)N(Cc1cccnc1)C(=O)c1cc(F)cc(F)c1` [Compound 235], the EC50 at full length human TREX1 was less than 0.1 µM; in test [1] it was 1 to 10 µM.
